Assay results published in patent EP4635500A1, “THERAPEUTIC AGENT FOR BACTERIAL INFECTION” (Sumitomo Pharma Co., Ltd., priority 2022, dated 2024).
Converted amounts (≈) assume the structure as drawn. Read-outs that look alike come from different tables or passages of the source.

Tested on: Enterobacterales
Assay: MIC, broth microdilution, CDC/FDA Antibiotic Resistance Isolate Bank (Example 7, Tables 8, 11, 12)
Type: cell-based

In the case of C[C@@H](O)[C@H]1C(=O)N2C(C(=O)O)=C(S[C@@H]3CN[C@H](C(=O)N(C)C)C3)[C@H](C)[C@H]12 [MEPM, meropenem], the MIC (Enterobacter cloacae, KUB No. 5562, AR Bank # 65, no carbapenemase gene, read-out: MIC) is reported as 0.25 µg/mL (≈ 0.652 µM), the MIC (Enterobacter cloacae, KUB No. 5569, AR Bank # 72, no carbapenemase gene, read-out: MIC) is reported as 0.12 µg/mL (≈ 0.313 µM) and the MIC (Enterobacter cloacae, KUB No. 5570, AR Bank # 73, no carbapenemase gene, read-out: MIC) is reported as ≤ 0.06 µg/mL. It also gave an MIC (Enterobacter cloacae, KUB No. 5590, AR Bank # 93, KPC-6, read-out: MIC) of 1 µg/mL (≈ 2.61 µM), an MIC (Enterobacter cloacae, KUB No. 5633, AR Bank# 136, KPC-3, read-out: MIC) of 8 µg/mL (≈ 20.9 µM) and an MIC (Enterobacter cloacae, KUB No. 5651, AR Bank# 154, VIM-1, read-out: MIC) of 4 µg/mL (≈ 10.4 µM). For the same compound, the MIC (Enterobacter cloacae, KUB No. 5660, AR Bank# 163, KPC-2, read-out: MIC) was 4 µg/mL (≈ 10.4 µM), the MIC (Enterobacter cloacae, KUB No. 5761, AR Bank# 365, KPC-2, read-out: MIC) was 2 µg/mL (≈ 5.22 µM) and the MIC (Enterobacter cloacae, KUB No. 5762, AR Bank# 366, KPC-2, read-out: MIC) was 1 µg/mL (≈ 2.61 µM). It also gave an MIC (Enterobacter cloacae, KUB No. 5763, AR Bank# 367, no carbapenemase genes, read-out: MIC) of 0.5 µg/mL (≈ 1.3 µM), an MIC (Enterobacter cloacae, KUB No. 5778, AR Bank# 432, no carbapenemase genes, read-out: MIC) of 0.12 µg/mL (≈ 0.313 µM) and an MIC (Enterobacter cloacae, KUB No. 5792, AR Bank# 448, NDM-1, read-out: MIC) of 16 µg/mL (≈ 41.7 µM). It also gave an MIC (Enterobacter cloacae, KUB No. 5807, AR Bank# 501, VIM-1, read-out: MIC) of 0.5 µg/mL (≈ 1.3 µM), an MIC (Enterobacter cloacae, KUB No. 5808, AR Bank# 502, IMP-8, read-out: MIC) of 4 µg/mL (≈ 10.4 µM) and an MIC (Escherichia coli, KUB No. 5558, AR Bank # 61, KPC-3 (line continued in Table 8-2), read-out: MIC) of 1 µg/mL (≈ 2.61 µM). It also gave an MIC (Escherichia coli, KUB No. 5611, AR Bank # 114, KPC-3, read-out: MIC) of 2 µg/mL (≈ 5.22 µM), an MIC (Escherichia coli, KUB No. 5634, AR Bank# 137, NDM-6, read-out: MIC) of 32 µg/mL (≈ 83.4 µM) and an MIC (Escherichia coli, KUB No. 5646, AR Bank# 149, NDM-7, read-out: MIC) of 8 µg/mL (≈ 20.9 µM). The MIC (Escherichia coli, KUB No. 5647, AR Bank# 150, NDM-5, read-out: MIC) was > 32 µg/mL, the MIC (Escherichia coli, KUB No. 5648, AR Bank# 151, NDM-5, read-out: MIC) was 8 µg/mL (≈ 20.9 µM) and the MIC (Escherichia coli, KUB No. 5659, AR Bank# 162, NDM-7, read-out: MIC) was 32 µg/mL (≈ 83.4 µM). For the same compound, the MIC (Escherichia coli, KUB No. 5764, AR Bank# 368, no carbapenemase genes, read-out: MIC) was ≤ 0.06 µg/mL, the MIC (Escherichia coli, KUB No. 5765, AR Bank# 369, no carbapenemase genes, read-out: MIC) was ≤ 0.06 µg/mL and the MIC (Escherichia coli, KUB No. 5766, AR Bank# 370, no carbapenemase genes, read-out: MIC) was ≤ 0.06 µg/mL. The MIC (Escherichia coli, KUB No. 5767, AR Bank# 371, no carbapenemase genes, read-out: MIC) was ≤ 0.06 µg/mL, the MIC (Escherichia coli, KUB No. 5768, AR Bank# 372, no carbapenemase genes, read-out: MIC) was ≤ 0.06 µg/mL and the MIC (Escherichia coli, KUB No. 5769, AR Bank# 373, no carbapenemase genes, read-out: MIC) was ≤ 0.06 µg/mL. For the same compound, the MIC (Escherichia coli, KUB No. 5770, AR Bank# 374, no carbapenemase genes, read-out: MIC) was ≤ 0.06 µg/mL, the MIC (Escherichia coli, KUB No. 5774, AR Bank# 378, no carbapenemase genes, read-out: MIC) was ≤ 0.06 µg/mL and the MIC (Escherichia coli, KUB No. 5779, AR Bank# 433, no carbapenemase genes, read-out: MIC) was ≤ 0.06 µg/mL. For the same compound, the MIC (Escherichia coli, KUB No. 5780, AR Bank# 434, no carbapenemase genes, read-out: MIC) was ≤ 0.06 µg/mL, the MIC (Escherichia coli, KUB No. 5781, AR Bank# 435, NDM-1, read-out: MIC) was 32 µg/mL (≈ 83.4 µM) and the MIC (Escherichia coli, KUB No. 5782, AR Bank# 436, no carbapenemase genes, read-out: MIC) was ≤ 0.06 µg/mL. For the same compound, the MIC (Escherichia coli, KUB No. 5783, AR Bank# 437, no carbapenemase genes, read-out: MIC) was ≤ 0.06 µg/mL, the MIC (Escherichia coli, KUB No. 5794, AR Bank# 450, no carbapenemase genes, read-out: MIC) was 16 µg/mL (≈ 41.7 µM) and the MIC (Escherichia coli, KUB No. 5796, AR Bank# 452, NDM-5, read-out: MIC) was 2 µg/mL (≈ 5.22 µM). It also gave an MIC (Klebsiella aerogenes, Enterobacter aerogenes, KUB No. 5559, AR Bank # 62, no carbapenemase gene, read-out: MIC) of 0.12 µg/mL (≈ 0.313 µM), an MIC (Klebsiella aerogenes, Enterobacter aerogenes, KUB No. 5571, AR Bank # 74, OXA-48, read-out: MIC) of 0.5 µg/mL (≈ 1.3 µM) and an MIC (Klebsiella aerogenes, Enterobacter aerogenes, KUB No. 5658, AR Bank# 161, IMP-4, read-out: MIC) of 1 µg/mL (≈ 2.61 µM). The MIC (Klebsiella aerogenes, Enterobacter aerogenes, KUB No. 5777, AR Bank# 431, no carbapenemase genes, read-out: MIC) was ≤ 0.06 µg/mL, the MIC (Klebsiella ornithinolytica) was 0.25 µg/mL (≈ 0.652 µM) and the MIC (Klebsiella oxytoca, KUB No. 5568, AR Bank # 71, no carbapenemase gene, read-out: MIC) was 8 µg/mL (≈ 20.9 µM). The MIC (Klebsiella oxytoca, KUB No. 5644, AR Bank# 147, KPC-3, read-out: MIC) was 0.25 µg/mL (≈ 0.652 µM), the MIC (Klebsiella oxytoca, KUB No. 5771, AR Bank# 375, no carbapenemase genes, read-out: MIC) was ≤ 0.06 µg/mL and the MIC (Klebsiella oxytoca, KUB No. 5776, AR Bank# 380, no carbapenemase genes, read-out: MIC) was 2 µg/mL (≈ 5.22 µM). It also gave an MIC (Klebsiella ozaenae, KUB No. 5548, AR Bank # 51, OXA-181, read-out: MIC) of 1 µg/mL (≈ 2.61 µM).
